# Patent publication US11795460B2, “Compositions and methods for TTR gene editing and treating ATTR amyloidosis” (Intellia Therapeutics, Inc., priority 2017, dated 2023)
# Tests used:
# [1] = tested on: TTR; assay: TTR editing in HEK293_Cas9 cells transfected with dgRNAs (Table 4); format: cell-based, human; conditions: HEK293_Cas9 cells (constitutively express Spy Cas9) transfected with dgRNAs
# Description: HEK293 Cas9 cell line. The human embryonic kidney adenocarcinoma cell line HEK293 constitutively expressing Spy Cas9 (“HEK293_Cas9”) was cultured in DMEM media supplemented with 10% fetal bovine serum and 500 μg/ml G418. Cells were plated at a density of 10,000 cells/well in a 96-well plate 24 hours prior to transfection. Cells were transfected with Lipofectamine RNAiMAX (ThermoFisher, Cat. 13778150) per the manufacturer's protocol. Cells were transfected with a lipoplex containing individual crRNA (25 nM), trRNA (25 nM), Lipofectamine RNAiMAX (0.3 μL/well) and OptiMem.
# Transfected cells were harvested post-transfection at 24, 48, or 72 hours. The genomic DNA was extracted from each well of a 96-well plate using 50 μL/well BuccalAmp DNA Extraction solution (Epicentre, Cat. QE09050) per manufacturer's protocol. All DNA samples were subjected to PCR and subsequent NGS analyses, as described herein.
# To quantitatively determine the efficiency of editing at the target location in the genome, sequencing was utilized to identify the presence of insertions and deletions introduced by gene editing.
# Primers were designed around the target site within the gene of interest (e.g. TTR), and the genomic area of interest was amplified.
# Additional PCR was performed per the manufacturer's protocols (Illumina) to add chemistry for sequencing. The amplicons were sequenced on an Illumina MiSeq instrument. The reads were aligned to a reference genome (e.g., the human reference genome (hg38), the cynomologus reference genome (mf5), the rat reference genome (rn6), or the mouse reference genome (mm10)) after eliminating those having low quality scores. The resulting files containing the reads were mapped to the reference genome (BAM files), where reads that overlapped the target region of interest were selected and the number of wild type reads versus the number of reads which contain an insertion, substitution, or deletion was calculated.
# The editing percentage (e.g., the “editing efficiency” or “percent editing” or “indel frequency”) is defined as the total number of sequence reads with insertions/deletions (“indels”) or substitutions over the total number of sequence reads, including wild type.
# Guides in dgRNA format targeting human TTR and the cynomologus matched sequences were delivered to HEK293 Cas9, HUH7 and HepG2 cell lines, as well as primary human hepatocytes and primary cynomolgus monkey hepatocytes as described in Example 1. Percent editing was determined for crRNAs comprising each guide sequence across each cell type and the guide sequences were then rank ordered based on highest % edit. The screening data for the guide sequences in Table 1 in all five cell lines are listed below (Table 4 through 11).
# [2] = tested on: TTR; assay: TTR editing in primary human hepatocytes transfected with Spy Cas9 mRNA and dgRNAs (Table 9); format: cell-based; conditions: dgRNA co-transfected with Spy Cas9 mRNA (SEQ ID NO:2)
# Method in brief: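 PHH sequentially lipofected with Spy Cas9 mRNA (100 ng), then crRNA plus tracrRNA (25 nM each) dual-guide lipoplex. Cells harvested 24, 48 or 72 h post-transfection; TTR target amplicons sequenced on Illumina MiSeq, editing given as percent reads with indels or substitutions over total reads.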
# [3] = tested on: TTR; assay: TTR editing in primary human hepatocytes electroporated with Spy Cas9 protein loaded with dgRNAs (Table 7); format: cell-based; conditions: dgRNA electroporated with Spy Cas9 protein (RNP)
# Method in brief: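 Primary human or cynomolgus hepatocytes electroporated (Lonza P3 buffer, program EX-147) with Spy Cas9 RNP carrying pre-annealed crRNA/trRNA dual guides. Genomic DNA harvested at 24, 48 or 72 h; target amplicons sequenced by Illumina MiSeq. Percent editing = reads with indels or substitutions over total reads.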
# [4] = tested on: TTR; assay: TTR editing in HepG2 cells transfected with Spy Cas9 mRNA and dgRNAs (Table 6); format: cell-based, human; conditions: HepG2 cells co-transfected with Spy Cas9 mRNA (SEQ ID NO:2) and dgRNAs
# Method in brief: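 HepG2 cells were transfected sequentially by lipofection with Spy Cas9 mRNA (100 ng), then crRNA plus tracer RNA (25 nM each), and harvested at 24, 48 or 72 h. Editing was measured by amplicon NGS at the TTR target site as the fraction of reads with indels or substitutions.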
sequence,measurement,setting,value
"AAAGGCUGCUGAUGACACCU (tested as dual guide RNA, chemistry not given here) [CR003353]",Avg % Deletion,[1],21.32%
same,Avg % Edit,[1],25.03%
same,Avg % Insert,[1],3.71%
same,Avg % Deletion,[2],4.43%
same,Avg % Edit,[2],53.73%
same,Avg % Insert,[2],49.50%
same,Avg % Deletion,[3],2.63%
same,Avg % Edit,[3],84.83%
same,Avg % Insert,[3],82.23%
same,Avg % Deletion,[4],3.68%
same,Avg % Edit,[4],60.40%
same,Avg % Insert,[4],56.71%
"AAAGUUCUAGAUGCUGUCCG (tested as dual guide RNA, chemistry not given here) [CR003346]",Avg % Deletion,[1],15.30%
same,Avg % Edit,[1],48.33%
same,Avg % Insert,[1],33.03%
same,Avg % Deletion,[2],14.33%
same,Avg % Edit,[2],19.97%
same,Avg % Insert,[2],5.63%
same,Avg % Deletion,[3],14.83%
same,Avg % Edit,[3],35.67%
same,Avg % Insert,[3],20.83%
same,Avg % Deletion,[4],0.05%
same,Avg % Edit,[4],0.13%
same,Avg % Insert,[4],0.07%
"AAAUAGACACCAAAUCUUAC (tested as dual guide RNA, chemistry not given here) [CR003366]",Avg % Deletion,[1],37.26%
same,Avg % Edit,[1],47.36%
same,Avg % Insert,[1],10.10%
same,Avg % Deletion,[2],4.07%
same,Avg % Edit,[2],24.53%
same,Avg % Insert,[2],20.47%
same,Avg % Deletion,[3],3.10%
same,Avg % Edit,[3],34.70%
same,Avg % Insert,[3],31.63%
same,Avg % Deletion,[4],8.49%
same,Avg % Edit,[4],54.69%
same,Avg % Insert,[4],46.20%
"AAGUGCCUUCCAGUAAGAUU (tested as dual guide RNA, chemistry not given here) [CR003368]",Avg % Deletion,[1],36.61%
same,Avg % Edit,[1],40.35%
same,Avg % Insert,[1],3.73%
same,Avg % Deletion,[2],0.60%
same,Avg % Edit,[2],11.10%
same,Avg % Insert,[2],10.53%
same,Avg % Deletion,[3],0.80%
same,Avg % Edit,[3],28.47%
same,Avg % Insert,[3],27.63%
same,Avg % Deletion,[4],3.22%
same,Avg % Edit,[4],51.55%
same,Avg % Insert,[4],48.34%
"AAUAGGAGUAGGGGCUCAGC (tested as dual guide RNA, chemistry not given here) [CR003384]",Avg % Deletion,[1],16.00%
same,Avg % Edit,[1],17.45%
same,Avg % Insert,[1],1.45%
same,Avg % Deletion,[2],0.20%
same,Avg % Edit,[2],1.70%
same,Avg % Insert,[2],1.50%
same,Avg % Deletion,[3],0.23%
same,Avg % Edit,[3],1.87%
same,Avg % Insert,[3],1.73%
same,Avg % Deletion,[4],0.25%
same,Avg % Edit,[4],3.37%
same,Avg % Insert,[4],3.12%
"ACACAAAUACCAGUCCAGCA (tested as dual guide RNA, chemistry not given here) [CR003339]",Avg % Deletion,[1],6.98%
same,Avg % Edit,[1],56.37%
same,Avg % Insert,[1],49.39%
same,Avg % Deletion,[2],34.23%
same,Avg % Edit,[2],36.43%
same,Avg % Insert,[2],2.27%
same,Avg % Deletion,[3],34.07%
same,Avg % Edit,[3],43.00%
same,Avg % Insert,[3],8.93%
same,Avg % Deletion,[4],55.84%
same,Avg % Edit,[4],68.21%
same,Avg % Insert,[4],12.37%
"ACCUCUGCAUGCUCAUGGAA (tested as dual guide RNA, chemistry not given here) [CR003371]",Avg % Deletion,[1],21.76%
same,Avg % Edit,[1],25.60%
same,Avg % Insert,[1],3.84%
same,Avg % Deletion,[2],0.73%
same,Avg % Edit,[2],3.40%
same,Avg % Insert,[2],2.67%
same,Avg % Deletion,[3],1.87%
same,Avg % Edit,[3],16.20%
same,Avg % Insert,[3],14.47%
same,Avg % Deletion,[4],1.84%
same,Avg % Edit,[4],15.91%
same,Avg % Insert,[4],14.07%
"ACGUGUCUUCUCUACACCCA (tested as dual guide RNA, chemistry not given here) [CR005302]",Avg % Deletion,[2],1.13%
same,Avg % Edit,[2],34.80%
same,Avg % Insert,[2],33.67%
same,Avg % Deletion,[3],1.00%
same,Avg % Edit,[3],61.10%
same,Avg % Insert,[3],60.10%
same,Avg % Deletion,[4],2.29%
same,Avg % Edit,[4],33.21%
same,Avg % Insert,[4],30.93%
"ACUGAGGAGGAAUUUGUAGA (tested as dual guide RNA, chemistry not given here) [CR003363]",Avg % Deletion,[1],16.26%
same,Avg % Edit,[1],31.03%
same,Avg % Insert,[1],14.77%
same,Avg % Deletion,[2],4.93%
same,Avg % Edit,[2],16.70%
same,Avg % Insert,[2],11.80%
same,Avg % Deletion,[3],1.63%
same,Avg % Edit,[3],9.43%
same,Avg % Insert,[3],7.80%
same,Avg % Deletion,[4],14.07%
same,Avg % Edit,[4],42.65%
same,Avg % Insert,[4],28.58%
"AGACACCAAAUCUUACUGGA (tested as dual guide RNA, chemistry not given here) [CR003367]",Avg % Deletion,[1],18.67%
same,Avg % Edit,[1],47.11%
same,Avg % Insert,[1],28.44%
same,Avg % Deletion,[2],23.37%
same,Avg % Edit,[2],37.33%
same,Avg % Insert,[2],14.03%
same,Avg % Deletion,[3],16.37%
same,Avg % Edit,[3],39.20%
same,Avg % Insert,[3],22.93%
same,Avg % Deletion,[4],21.27%
same,Avg % Edit,[4],45.55%
same,Avg % Insert,[4],24.28%
"AGCCUUUCUGAACACAUGCA (tested as dual guide RNA, chemistry not given here) [CR003351]",Avg % Deletion,[1],21.24%
same,Avg % Edit,[1],49.67%
same,Avg % Insert,[1],28.42%
same,Avg % Deletion,[2],16.37%
same,Avg % Edit,[2],26.50%
same,Avg % Insert,[2],10.20%
same,Avg % Deletion,[3],20.97%
same,Avg % Edit,[3],51.77%
same,Avg % Insert,[3],30.83%
same,Avg % Deletion,[4],25.57%
same,Avg % Edit,[4],57.54%
same,Avg % Insert,[4],31.98%
"AGGCAGUCCUGCCAUCAAUG (tested as dual guide RNA, chemistry not given here) [CR003348]",Avg % Deletion,[1],13.21%
same,Avg % Edit,[1],35.53%
same,Avg % Insert,[1],22.32%
same,Avg % Deletion,[2],15.80%
same,Avg % Edit,[2],18.00%
same,Avg % Insert,[2],2.30%
same,Avg % Deletion,[3],17.27%
same,Avg % Edit,[3],28.53%
same,Avg % Insert,[3],11.30%
same,Avg % Deletion,[4],21.40%
same,Avg % Edit,[4],38.44%
same,Avg % Insert,[4],17.04%
"AGUCCCUCAUUCCUUGGGAU (tested as dual guide RNA, chemistry not given here) [CR003392]",Avg % Deletion,[1],20.82%
same,Avg % Edit,[1],21.67%
same,Avg % Insert,[1],0.85%
same,Avg % Deletion,[2],0.07%
same,Avg % Edit,[2],2.43%
same,Avg % Insert,[2],2.37%
same,Avg % Deletion,[3],0.17%
same,Avg % Edit,[3],4.13%
same,Avg % Insert,[3],4.00%
same,Avg % Deletion,[4],0.33%
same,Avg % Edit,[4],14.64%
same,Avg % Insert,[4],14.32%
"GUCACAGAAACACUCACCGU (tested as dual guide RNA, chemistry not given here) [CR005301]",Avg % Deletion,[2],1.40%
same,Avg % Edit,[2],6.77%
same,Avg % Insert,[2],5.47%
same,Avg % Deletion,[3],1.60%
same,Avg % Edit,[3],25.37%
same,Avg % Insert,[3],24.00%
same,Avg % Deletion,[4],3.65%
same,Avg % Edit,[4],37.04%
same,Avg % Insert,[4],33.39%
"UGAAUCCAAGUGUCCUCUGA (tested as dual guide RNA, chemistry not given here) [CR005303]",Avg % Deletion,[2],0.50%
same,Avg % Edit,[2],35.50%
same,Avg % Insert,[2],35.00%
same,Avg % Deletion,[3],0.53%
same,Avg % Edit,[3],53.57%
same,Avg % Insert,[3],53.07%
same,Avg % Deletion,[4],1.08%
same,Avg % Edit,[4],21.63%
same,Avg % Insert,[4],20.55%
